# Key:
# [1] = molecular target: T1, proMMP9 (Homo sapiens, UniProt P14780); assay: Activation of proMMP9 by human fetal lung fibroblast (HFL-1) cultures (Western blot); assay type: cell-based; conditions: 3.3 μM Compound α
# T1 construct: host or cells: HFL-1 human fetal lung fibroblasts
# Method: Activation of proMMP9 by Human Fetal Lung Fibroblast Cultures
# Compound α was assessed additionally for ability to block the maturation of proMMP9 to active MMP9 in cultures of human fetal lung fibroblasts (HFL-1, American Type Culture Collection #CCL-153). Unlike rat synoviocytes, HFL-1 cells were unable to process proMMP9 to the active form without addition of neutrophil elastase. […] Rather, the function of elastase in this assay may be to inactivate tissue inhibitors of matrix metalloproteinases (TIMPs) that repress endogenous pathways of MMP9 activation (Am J Respir Crit. Care Med; 1999; 159:1138-46).
# HLF-1 were maintained in monolayer culture in DMEM with 10% FCS and were used between passage numbers 5-15. HLF-1 were embedded in collagen gels as described for rat SCW synoviocytes (vida supra). Half mL gels containing 0.4 million cells were dislodged into wells of 12 well Costar plates containing 1 mL/well of DMEM adjusted to contain 0.05% BSA and 100 ng/mL human TNFα (R&D Systems Cat #210-TA/CF). After overnight culture (37° C. and 5% CO2) wells were adjusted to contain an additional 0.5 mL of DMEM containing 0.05% BSA and with or without 13.2 μM Compound α (final concentration was 3.3 μM Compound α). Next, cultures were adjusted to contain 30 nM human elastase (Innovative Research). The plates were cultured an additional 72 hrs, at which time MMP9 secreted into the conditioned media was bound to gelatin-sepharose and evaluated by Western blot analysis as described for the rat synoviocyte cultures (vida supra). mAb-51/82 detected three forms of MMP9 in HFL-1 cultures.
# A second experiment was performed to determine if the 80 kD form was mature active MMP9 and to determine the potency of Compound α as an inhibitor of MMP9 maturation in this assay. HFL-1 cells embedded in collagen gels were cultured as described above in the presence of TNFα overnight and the cultures were then adjusted to contain 30 nM elastase and graded concentrations of Compound α for an additional 72 hrs at which time MMP9 secreted into the conditioned media was bound to gelatin-sepharose and evaluated by Western blot analysis for active MMP9 using pAb-1246 raised against the N-terminal neoepitope of active MMP9 (Table 5). In the absence of Compound α, pAb-1246 readily detected MMP9 with an electrophoretic mobility of approximately 80 kD. […] Inhibition occurred over a dose range with an IC50 of approximately 0.3 μM Compound α.
# [2] = molecular target: T2, MMP9 (Rattus norvegicus, UniProt P50282); assay: Active MMP9 in ankles of rats with SCW-induced arthritis by Western blot; assay type: in vivo; conditions: day 26, four hours after AM dose; FIG. 3A lanes 4-9
# T2 construct: Pro and active MMP9 were abundantly present in ankles of SCW-induced vehicle-treated rats; from tissue; host or cells: tibia-tarsus joints (ankles) of female Lewis rats
# Method: Hind-limbs were skinned, severed just above the tibia-tarsus joint and below the metatarsals, and the tibia-tarsus joints (ankles) were weighed, snap frozen and pulverized on dry ice using a hammer and anvil. The pulverized tissue was suspended in 3 volumes (w:v) of ice-cold homogenization buffer containing 50 mM Tris pH 7.5, 150 mM NaCl, 5 mM EDTA, 1% Triton X100, 0.05% Brij 30, 10% dimethylsulfoxide and Complete EDTA-free Protease Inhibitor Cocktail (Roche Diagnostics). The suspended tissue was homogenized sequentially with a Kinematica AG Polytron and a Dounce homogenizer. Homogenates were centrifuged at 16,000×g for 10 min at 4° C. and the soluble fractions were saved. Dimethylsulfoxide was removed from a portion of each soluble fraction using PD MiniTrap™ G-25 desalting columns (GE Healthcare). Homogenates (0.25 mL), free of DMSO, were diluted with an equal volume of binding buffer (i.e., homogenization buffer without dimethylsufoxide) and adjusted to contain 50 μL of a 50% slurry of gelatin-conjugated sepharose. Following 2 hours of rotation at 4° C. the beads were washed twice in binding buffer and eluted in 100 μL 2×-reducing Laemmli buffer with heating to 95° C. for 5 minutes. […]
# T1 sequence (P14780 20-707 limits assumed): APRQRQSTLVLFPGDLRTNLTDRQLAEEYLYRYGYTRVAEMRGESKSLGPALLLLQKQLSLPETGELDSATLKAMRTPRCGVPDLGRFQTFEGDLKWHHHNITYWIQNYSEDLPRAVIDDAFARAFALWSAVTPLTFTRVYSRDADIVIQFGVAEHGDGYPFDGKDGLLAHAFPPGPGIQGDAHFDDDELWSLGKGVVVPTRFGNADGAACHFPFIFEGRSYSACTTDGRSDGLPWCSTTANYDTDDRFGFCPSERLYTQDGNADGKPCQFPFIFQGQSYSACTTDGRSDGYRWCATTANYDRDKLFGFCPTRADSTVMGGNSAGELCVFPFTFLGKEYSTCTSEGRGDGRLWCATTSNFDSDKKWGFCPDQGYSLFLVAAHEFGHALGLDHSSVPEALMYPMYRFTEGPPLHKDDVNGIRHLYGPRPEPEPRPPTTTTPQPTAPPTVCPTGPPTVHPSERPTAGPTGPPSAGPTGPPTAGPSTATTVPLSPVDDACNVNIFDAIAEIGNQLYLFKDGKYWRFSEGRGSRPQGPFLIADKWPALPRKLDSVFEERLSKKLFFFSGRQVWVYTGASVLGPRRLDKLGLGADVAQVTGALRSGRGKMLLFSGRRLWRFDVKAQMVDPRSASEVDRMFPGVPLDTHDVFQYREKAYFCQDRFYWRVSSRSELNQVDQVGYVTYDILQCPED
# T2 sequence (P50282 108-708): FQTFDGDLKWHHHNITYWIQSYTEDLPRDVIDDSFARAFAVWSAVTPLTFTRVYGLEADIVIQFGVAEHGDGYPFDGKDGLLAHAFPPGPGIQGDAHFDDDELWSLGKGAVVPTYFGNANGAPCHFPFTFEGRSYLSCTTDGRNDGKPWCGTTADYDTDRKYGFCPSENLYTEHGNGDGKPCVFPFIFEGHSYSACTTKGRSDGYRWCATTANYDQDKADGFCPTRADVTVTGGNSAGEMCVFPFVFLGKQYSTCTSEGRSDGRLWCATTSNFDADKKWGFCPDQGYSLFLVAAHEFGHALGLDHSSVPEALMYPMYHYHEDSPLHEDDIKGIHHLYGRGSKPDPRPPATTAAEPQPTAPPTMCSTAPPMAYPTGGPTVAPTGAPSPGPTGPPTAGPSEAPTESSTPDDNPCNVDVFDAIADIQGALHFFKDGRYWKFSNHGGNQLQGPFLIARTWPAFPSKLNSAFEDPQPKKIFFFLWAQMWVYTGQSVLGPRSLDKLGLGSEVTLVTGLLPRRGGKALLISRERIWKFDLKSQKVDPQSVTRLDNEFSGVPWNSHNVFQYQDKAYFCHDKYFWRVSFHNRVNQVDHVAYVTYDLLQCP
compound,measurement,setting,value
"Cc1nc(C)c(-c2csc(Nc3cc(S(N)(=O)=O)ccc3OC(C)C)n2)s1 [Compound α, 3-(2′,4′-Dimethyl-[4,5′]bithiazolyl-2-ylamino)-4-isopropoxy-benzenesulfonamide.HBr]",Percent of total signal 80 kD,[1],7%
same,Percent of total signal 86 kD,[1],47%
same,Percent of total signal 100 kD,[1],46%
same,Signal Total,"[1]; 30 nM elastase, 72 hrs, mAb-L51/82",91346 INT*mm^2
same,abundance of proMMP9 in ankles,[2],did not reduce

# Reference: US20120302569A1, “PHENYL-THIAZOLYL INHIBITORS OF PRO-MATRIX METALLOPROTEINASE ACTIVATION” (priority 2011, published 2012)
